Publication PMC8260761, “A bacteriocin-based treatment option for Staphylococcus haemolyticus biofilms” (Scientific Reports, 2021)

Legend:
Assay in all cases: Spot-on-lawn inhibition assay
Type in all cases: cell-based
Bacillus cereus [1] = test system: Bacillus cereus; design: key: –: “−” = No inhibition; “+” = Unclear zone; “++” = zone < 1 cm; “+++” = zone ≥ 1 cm; conditions: 5 µl at 1 mg/ml, n=3
Description: (§1) A semi-quantitative spot-on-lawn inhibitory assay was performed on 51 bacterial indicator strains (Table S1) to determine the bacteriocins inhibition spectra. Overnight cultures were diluted 1:100 in BHI soft agar and distributed on BHI agar plates. Once solidified, bacteriocins with various concentrations were applied on designated spots. The plates were incubated at appropriate temperature O/N and inhibition zones were measured the following day. To determine minimal inhibitory concentration (MIC50) of H1 against clinical S. haemolyticus isolates (Table S2), as well as strains heterologously expressing RseP (Table S4), the microtiterplate antimicrobial assay was performed as previously described[41],[79]. MIC50 was defined as the minimal bacteriocin concentration needs to inhibit the growth of a bacterial strain by at least 50%.

L. monocytogenes [2] = test system: L. monocytogenes; design: key: –: “−” = No inhibition; “+” = Unclear zone; “++” = zone < 1 cm; “+++” = zone ≥ 1 cm; conditions: L. monocytogenes EDGe; 5 µl at 1 mg/ml; n=3
Description: as §1

S. uberis [3] = test system: S. uberis; design: key: –: “−” = No inhibition; “+” = Unclear zone; “++” = zone < 1 cm; “+++” = zone ≥ 1 cm; conditions: S. uberis 7904-3; 5 µl at 1 mg/ml; n=3
Description: as §1

C. piscicola [4] = test system: C. piscicola; design: key: –: “−” = No inhibition; “+” = Unclear zone; “++” = zone < 1 cm; “+++” = zone ≥ 1 cm; conditions: C. piscicola LMG 2332; 5 µl at 1 mg/ml; n=3
Description: as §1

L. lactis = test system: L. lactis; design: key: “-“ = No inhibition; “+” = Unclear zone; “++” = zone < 1 cm; “+++”= zone > 1 cm; conditions: 5 µl at 1 mg/ml, n=3
Description: as §1

S. uberis [5] = test system: S. uberis; design: key: “-“ = No inhibition; “+” = Unclear zone; “++” = zone < 1 cm; “+++”= zone > 1 cm; conditions: 5 µl at 1 mg/ml, n=3
Description: as §1

S. thermophilus = test system: S. thermophilus; design: key: “-“ = No inhibition; “+” = Unclear zone; “++” = zone < 1 cm; “+++”= zone > 1 cm; conditions: S. thermophilus Sfi13; 5 µl at 1 mg/ml; n=3
Description: as §1

Staphylococcus arlettae [6] = test system: Staphylococcus arlettae; design: key: “-“ = No inhibition; “+” = Unclear zone; “++” = zone < 1 cm; “+++”= zone > 1 cm; conditions: Staphylococcus arlettae LMG 4134; 5 µl at 1 mg/ml; n=3
Description: as §1

Esherichia coli = test system: Esherichia coli; design: key: “-“ = No inhibition; “+” = Unclear zone; “++” = zone < 1 cm; “+++”= zone > 1 cm; conditions: 5 µl at 1 mg/ml, n=3
Description: as §1

Carnobacterium divergens = test system: Carnobacterium divergens; design: key: “-“ = No inhibition; “+” = Unclear zone; “++” = zone < 1 cm; “+++”= zone > 1 cm; conditions: Carnobacterium divergens NCDO 2306; 5 µl at 1 mg/ml; n=3
Description: as §1

S. simulans = test system: S. simulans; design: key: “-“ = No inhibition; “+” = Unclear zone; “++” = zone < 1 cm; “+++”= zone > 1 cm; conditions: S. simulans LMG 3233; 5 µl at 1 mg/ml; n=3
Description: as §1

S. epidermidis [7] = test system: S. epidermidis; design: key: “-“ = No inhibition; “+” = Unclear zone; “++” = zone < 1 cm; “+++”= zone > 1 cm; conditions: S. epidermidis LMG 3522; 5 µl at 1 mg/ml; n=3
Description: as §1

L. gelidum = test system: L. gelidum; design: key: “-“ = No inhibition; “+” = Unclear zone; “++” = zone < 1 cm; “+++”= zone > 1 cm; conditions: L. gelidum LMG 2386; 5 µl at 1 mg/ml; n=3
Description: as §1

L. sakei = test system: L. sakei; design: key: “-“ = No inhibition; “+” = Unclear zone; “++” = zone < 1 cm; “+++”= zone > 1 cm; conditions: 5 µl at 1 mg/ml, n=3
Description: as §1

L. monocytogenes [8] = conditions: L. monocytogenes EDGe; 5 µl at 1 mg/ml; n=3
Description: as §1

Staphylococcus arlettae [9] = test system: Staphylococcus arlettae; design: key: –: “−” = No inhibition; “+” = Unclear zone; “++” = zone < 1 cm; “+++” = zone ≥ 1 cm; conditions: Staphylococcus arlettae LMG 4134; 5 µl at 1 mg/ml; n=3
Description: as §1

S. epidermidis [10] = test system: S. epidermidis; design: key: –: “−” = No inhibition; “+” = Unclear zone; “++” = zone < 1 cm; “+++” = zone ≥ 1 cm; conditions: S. epidermidis LMG 3522; 5 µl at 1 mg/ml; n=3
Description: as §1

S. aureus = test system: S. aureus; design: key: –: “−” = No inhibition; “+” = Unclear zone; “++” = zone < 1 cm; “+++” = zone ≥ 1 cm; conditions: 5 µl at 1 mg/ml, n=3
Description: as §1

Bacillus cereus [11] = test system: Bacillus cereus; design: key: “-“ = No inhibition; “+” = Unclear zone; “++” = zone < 1 cm; “+++”= zone > 1 cm; conditions: 5 µl at 1 mg/ml, n=3
Description: as §1

C. piscicola [12] = test system: C. piscicola; design: key: “-“ = No inhibition; “+” = Unclear zone; “++” = zone < 1 cm; “+++”= zone > 1 cm; conditions: C. piscicola LMG 2332; 5 µl at 1 mg/ml; n=3
Description: as §1

Measured: Average inhibition score

MKFKFNPTGTIVKKLTQYEIAWFKNKHGYYPWEIPRC [K1, enterocin K1]
+++ (“+++”= zone > 1 cm): L. lactis; L. lactis IL1403 | L. sakei; L. sakei 148
+: Bacillus cereus [1]; B. cereus LMG 2711 | Bacillus cereus [1]; B. cereus LMG 2731 | Bacillus cereus [1]; Bacillus cereus LMG 2805 | L. monocytogenes [2] | S. uberis [3] | C. piscicola [4]
-: L. lactis; L. lactis LMG 2081 | S. uberis [5]; S. uberis 8008-1 | S. thermophilus | Staphylococcus arlettae [6] | Esherichia coli; E. coli TG1 | Esherichia coli; Esherichia coli DH5α | Carnobacterium divergens | S. simulans | S. epidermidis [7] | L. gelidum
++ (“++” = zone < 1 cm): L. sakei; L. sakei LMG 2380

MLAKIKAMIKKFPNPYTLAAKLTTYEINWYKQQYGRYPWERPVA [EJ97, enterocin EJ97]
-: Bacillus cereus [11]; B. cereus LMG 2711 | Bacillus cereus [11]; B. cereus LMG 2731 | Bacillus cereus [11]; Bacillus cereus LMG 2805 | L. lactis; L. lactis LMG 2081 | S. uberis [5]; S. uberis 7904-3 | S. uberis [5]; S. uberis 8008-1 | S. thermophilus | Esherichia coli; E. coli TG1 | Esherichia coli; Esherichia coli DH5α | Carnobacterium divergens | S. simulans | C. piscicola [12] | L. gelidum | L. sakei; L. sakei 148 | L. sakei; L. sakei LMG 2380
+: Staphylococcus arlettae [9] | S. epidermidis [10] | S. aureus; S. aureus LMG 3263 | S. aureus; S. aureus LMG 3326
+++ (“+++”= zone > 1 cm): L. monocytogenes [8] | L. lactis; L. lactis IL1403
